PMC11648822, “Lactam Truncation Yields a Dihydroquinazolinone Scaffold with Potent Antimalarial Activity that Targets PfATP4” (Chemmedchem, 2024)

Key:
[1] = molecular target: T1, PfATP4 (membranes prepared from 3D7 parasites) (Plasmodium falciparum, UniProt A0A143ZZK9); test: PfATP4 Na+ assay (membrane ATPase), 3D7 membranes; type: biochemical, P. falciparum; details: for effect on membrane ATPase activity (PfATP4): 2 μM, high-[Na+] (152 mM), cipargamin not present
T1 construct: The membranes were prepared from isolated trophozoite‐stage 3D7 parasites; endogenous in cells; host or cells: P. falciparum 3D7 trophozoites (membrane preparation)
Procedure: Figure 4 Dihydroquinazolinone analogs 14 and 36 (WJM062) inhibit Na^+‐ATPase activity in membranes prepared from isolated P. falciparum parasites, consistent with them being PfATP4 inhibitors. (A) The effects of dihydroquinazolinone compounds (2 μM), dihydroartemisinin (DHA; 50 nM; negative control) and 0.2 % v/v DMSO (solvent‐only control) on membrane ATPase activity under high‐[Na^+] conditions (152 mM Na^+) and low‐[Na^+] conditions (2 mM Na^+; stemming from the addition of 1 mM Na2ATP) in the presence and absence of the PfATP4 inhibitor cipargamin (50 nM). The membranes were prepared from isolated trophozoite‐stage 3D7 parasites. The Pi produced is expressed as a percentage of that measured in the 152 mM Na^+ Control. The data are from four independent experiments performed with different membrane preparations; the symbols show the data from individual experiments and the bars show the mean (+SEM). In individual experiments, the Pi produced in the 152 mM Na^+ Control varied from 66 to 96 nmol per mg (total) protein per min. A repeated measures ANOVA with a post hoc Tukey test was used to compare the (pre‐normalised) data for different compounds and conditions. For comparisons between different conditions for the same test compound (or for the Control), significant differences are shown with black asterisks. For comparisons between the Control and a compound under the same test condition, significant differences are shown with coloured asterisks (in this case, grey asterisks, as the only significant differences were between the control and the dihydroquinazolinone compounds in the 152 mM Na^+ condition). ***P<0.001. (B) Concentration‐dependence of the effects of dihydroquinazolinone compounds on PfATP4‐associated ATPase activity in membranes prepared from 3D7 parasites. The data are the mean (shown + or − SEM) obtained from four independent experiments performed with different membrane preparations, with the exception of the lowest and second‐lowest concentrations of the compounds, for which data are from two and three independent experiments, respectively. (C and D) Potency of dihydroquinazolinone compounds against PfATP4‐associated ATPase activity in membranes prepared from Dd2‐Polδ‐PfATP4^G358S parasites (open triangles) and their Dd2‐Polδ parents (closed triangles). The data are the mean (shown + or − SEM) from four (C) or three (D) independent experiments. In B−D, the Pi production measured in the low‐[Na^+] (2 mM) condition was subtracted from that measured in high‐[Na^+] (152 mM) in the presence of each of the different concentrations of dihydroquinazolinone compounds to calculate the PfATP4‐associated ATPase activity. The PfATP4‐associated ATPase activity is expressed as a percentage of that obtained for the high‐[Na^+] (152 mM) Control.
Membrane ATPase assays were performed using a PiColorLock Gold Phosphate Detection System (Innova Biosciences), essentially as described previously.[25] Membranes were prepared either from isolated 3D7 trophozoites or from isolated Dd2‐Polδ‐PfATP4^G358S [22] and Dd2‐Polδ trophozoites.[26]

Dd2‐PfATP4^G358S = molecular target: T2, Dd2‐PfATP4^G358S (Plasmodium falciparum, UniProt A0A143ZZK9, G1128R/G358S); test: PfATP4 Na+ assay (membrane ATPase), Dd2-Polδ-PfATP4^G358S membranes; type: biochemical, P. falciparum; details: membranes from Dd2-Polδ-PfATP4^G358S parasites
T2 construct: We prepared membranes from Dd2‐Polδ‐PfATP4^G358S parasites (generated previously[22]); endogenous in cells; host or cells: P. falciparum Dd2-Polδ-PfATP4^G358S trophozoites (membrane preparation)
T2 sequence (A0A143ZZK9 1-1264 G358S/G1128R): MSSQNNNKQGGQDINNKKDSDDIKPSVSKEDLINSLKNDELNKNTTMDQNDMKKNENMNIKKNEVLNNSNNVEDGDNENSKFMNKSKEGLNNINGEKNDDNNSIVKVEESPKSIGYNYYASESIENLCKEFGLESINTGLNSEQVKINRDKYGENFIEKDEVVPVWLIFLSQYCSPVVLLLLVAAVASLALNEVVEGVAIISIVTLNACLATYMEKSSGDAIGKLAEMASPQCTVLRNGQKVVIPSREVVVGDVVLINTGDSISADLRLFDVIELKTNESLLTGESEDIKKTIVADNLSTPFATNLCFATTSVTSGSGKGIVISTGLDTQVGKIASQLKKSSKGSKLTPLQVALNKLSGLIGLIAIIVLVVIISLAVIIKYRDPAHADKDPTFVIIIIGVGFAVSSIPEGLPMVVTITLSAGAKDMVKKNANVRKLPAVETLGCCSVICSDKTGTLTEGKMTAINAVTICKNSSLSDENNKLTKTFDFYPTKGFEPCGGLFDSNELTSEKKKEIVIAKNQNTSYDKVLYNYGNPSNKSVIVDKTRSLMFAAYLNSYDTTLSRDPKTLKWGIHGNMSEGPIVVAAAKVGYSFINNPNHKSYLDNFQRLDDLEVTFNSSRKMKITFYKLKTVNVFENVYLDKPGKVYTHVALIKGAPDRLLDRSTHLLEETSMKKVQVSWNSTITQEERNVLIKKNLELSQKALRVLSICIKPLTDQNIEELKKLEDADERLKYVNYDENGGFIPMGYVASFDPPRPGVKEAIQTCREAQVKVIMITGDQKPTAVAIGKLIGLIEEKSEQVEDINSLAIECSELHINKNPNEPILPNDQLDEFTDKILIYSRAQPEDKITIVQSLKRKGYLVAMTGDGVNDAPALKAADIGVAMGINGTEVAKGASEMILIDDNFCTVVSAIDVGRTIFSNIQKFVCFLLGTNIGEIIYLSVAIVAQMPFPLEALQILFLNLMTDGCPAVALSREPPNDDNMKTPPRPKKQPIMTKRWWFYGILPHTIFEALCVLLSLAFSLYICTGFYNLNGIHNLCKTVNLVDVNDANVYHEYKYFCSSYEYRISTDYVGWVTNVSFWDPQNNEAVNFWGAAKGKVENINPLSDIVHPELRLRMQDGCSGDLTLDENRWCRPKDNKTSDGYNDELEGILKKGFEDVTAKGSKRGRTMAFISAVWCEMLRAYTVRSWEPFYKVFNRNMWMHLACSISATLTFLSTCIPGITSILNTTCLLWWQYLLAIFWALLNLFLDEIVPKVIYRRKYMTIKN
Procedure: Figure 4 Dihydroquinazolinone analogs 14 and 36 (WJM062) inhibit Na^+‐ATPase activity in membranes prepared from isolated P. falciparum parasites, consistent with them being PfATP4 inhibitors. (A) The effects of dihydroquinazolinone compounds (2 μM), dihydroartemisinin (DHA; 50 nM; negative control) and 0.2 % v/v DMSO (solvent‐only control) on membrane ATPase activity under high‐[Na^+] conditions (152 mM Na^+) and low‐[Na^+] conditions (2 mM Na^+; stemming from the addition of 1 mM Na2ATP) in the presence and absence of the PfATP4 inhibitor cipargamin (50 nM). The membranes were prepared from isolated trophozoite‐stage 3D7 parasites. The Pi produced is expressed as a percentage of that measured in the 152 mM Na^+ Control. The data are from four independent experiments performed with different membrane preparations; the symbols show the data from individual experiments and the bars show the mean (+SEM). In individual experiments, the Pi produced in the 152 mM Na^+ Control varied from 66 to 96 nmol per mg (total) protein per min. A repeated measures ANOVA with a post hoc Tukey test was used to compare the (pre‐normalised) data for different compounds and conditions. […] In B−D, the Pi production measured in the low‐[Na^+] (2 mM) condition was subtracted from that measured in high‐[Na^+] […] The PfATP4‐associated ATPase activity is expressed as a percentage of that obtained for the high‐[Na^+] […]

T1 sequence (A0A143ZZK9 whole entry): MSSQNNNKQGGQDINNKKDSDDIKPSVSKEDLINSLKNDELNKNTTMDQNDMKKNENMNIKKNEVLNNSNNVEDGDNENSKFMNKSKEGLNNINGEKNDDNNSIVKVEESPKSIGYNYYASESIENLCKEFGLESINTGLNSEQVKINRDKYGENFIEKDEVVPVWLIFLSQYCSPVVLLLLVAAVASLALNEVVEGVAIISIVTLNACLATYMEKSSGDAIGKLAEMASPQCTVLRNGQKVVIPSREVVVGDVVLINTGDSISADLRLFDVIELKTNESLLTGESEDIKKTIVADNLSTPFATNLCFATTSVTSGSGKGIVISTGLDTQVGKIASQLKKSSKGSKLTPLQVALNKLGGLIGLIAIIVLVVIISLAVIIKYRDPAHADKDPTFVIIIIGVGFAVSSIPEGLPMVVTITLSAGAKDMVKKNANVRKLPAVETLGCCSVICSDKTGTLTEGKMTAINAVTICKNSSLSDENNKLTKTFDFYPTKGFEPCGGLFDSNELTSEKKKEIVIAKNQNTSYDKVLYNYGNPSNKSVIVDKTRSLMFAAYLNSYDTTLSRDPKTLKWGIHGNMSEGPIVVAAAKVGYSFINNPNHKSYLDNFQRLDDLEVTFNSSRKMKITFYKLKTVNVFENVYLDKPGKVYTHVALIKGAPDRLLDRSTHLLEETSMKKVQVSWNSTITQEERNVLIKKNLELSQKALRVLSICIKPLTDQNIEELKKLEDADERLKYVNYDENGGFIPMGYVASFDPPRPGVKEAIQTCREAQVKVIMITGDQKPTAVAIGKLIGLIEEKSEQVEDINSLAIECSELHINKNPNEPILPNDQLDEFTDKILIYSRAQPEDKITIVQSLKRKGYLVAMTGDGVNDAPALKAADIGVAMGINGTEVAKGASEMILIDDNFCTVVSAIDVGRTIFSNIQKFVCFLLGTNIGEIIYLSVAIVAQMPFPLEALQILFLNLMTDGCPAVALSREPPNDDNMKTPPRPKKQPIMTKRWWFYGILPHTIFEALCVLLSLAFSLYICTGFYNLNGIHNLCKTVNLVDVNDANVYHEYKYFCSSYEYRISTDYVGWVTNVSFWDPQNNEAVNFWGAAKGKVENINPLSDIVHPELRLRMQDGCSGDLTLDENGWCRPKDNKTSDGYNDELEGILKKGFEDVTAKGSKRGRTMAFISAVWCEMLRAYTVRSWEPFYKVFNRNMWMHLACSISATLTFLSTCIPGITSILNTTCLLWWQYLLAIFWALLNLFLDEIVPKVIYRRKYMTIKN

SMILES	EC50 [1] [nM]	effect on membrane ATPase activity (PfATP4) [1]	EC50 (Dd2‐PfATP4^G358S) [nM]
CN1C(=O)c2ccc(Cl)cc2NC1(C)C(=O)Nc1cncc(Cl)c1 (stereo not drawn) [Compound 14, 7‐Chloro‐N‐(5‐chloro‐3‐pyridyl)‐2,3‐dimethyl‐4‐oxo‐1H‐quinazoline‐2‐carboxamide]	7.2	complete inhibition	12.1
COc1cc(F)c2c(c1)NC(C)(C(=O)Nc1cncc(Cl)c1)N(C)C2=O (stereo not drawn) [Compound 36, N‐(5‐Chloropyridin‐3‐yl)‐5‐fluoro‐7‐methoxy‐2,3‐dimethyl‐4‐oxo‐1,2,3,4‐tetrahydroquinazoline‐2‐carboxamide]	8.6	complete inhibition	11.6
